Consider one compound from patent US20140243239A1, “MULTIPLEXED KINASE INHIBITOR BEADS AND USES THEREOF” (University of North Carolina at Chapel Hill, priority 2011, published 2014).

This assay has as its system kinome (kinase binding to MIBs) of SUM159 cells. The experiment in a line: MIB/MS kinome profiling of inhibitor-treated SUM159 cells. The class given is cell-based, human. The text has this: Multiplexed inhibitor bead affinity chromatography: Cells and tumors were lysed and harvested as previously described (Oppermann et al., 2009). Oppermann et al., 2009 Mol Cell Proteo 8 1751-1764. Briefly, lysates were brought to 1 M NaCl and passed through columns of washed inhibitor-conjugated beads (bisindoylmaleimide-X, SB203580, lapatinib, dasatinib, purvalanol B, VI16832, PP58) to isolate protein kinases from the lysates (see Supplemental Experimental Procedures for MIBs preparation). Kinase-bound inhibitor beads were washed with high-salt buffer and 0.1% SDS before elution in 0.5% SDS solution in high heat. Proteins were purified using chloroform/methanol extraction, resuspended in 50 mM ammonium bicarbonate (pH 8.0) or 50 mM HEPES (pH 8.0) for SILAC or iTRAQ respectfully. Samples were digested overnight at 37° C. with sequencing grade modified trypsin (Promega). iTRAQ labeling of digested peptides was carried out using iTRAQ 4-plex reagent (AB SCIEX) for 2 hrs at room temperature in the dark. Peptides were dried down, separated using Strong Cation Exchange Spin Columns, Mini and isolated with PepClean C-18 Spin Columns (Thermo Scientific).
LC-MS/MS analysis: MS and MS/MS data were acquired using a MALDI TOF/TOF 5800 (AB SCIEX). Peptides were analyzed using ProteinPilot Software Version 3.0 (AB SCIEX) and identification using UniProtKB/Swiss-Prot database (release Oct. 15, 2009). Proteins were only accepted when at least 1 unique peptide was identified at 99% confidence. ProteinPilot software 3.0 identified and quantified changes in kinase binding to MIBs utilizing the Pro Group Algorithm. […] For each protein ratio reported, a p-value is computed based on Student's t-distribution under the null hypothesis that the protein ratio is 1. MIB/MS analysis with cell lines was done in 2-3 independent experiments. A set of three independent experiments using SILAC labeled SUM159 cells treated with AZD6244 or DMSO was used to assess statistical significance and reproducibility of MIBs/MS to profile kinome response (Supplementary Methods).
Cells were lysed on ice for 20 minutes in lysis buffer containing 50 mM HEPES (pH 7.5), 0.5% Triton X-100, 150 mM NaCl, 1 mM EDTA, 1 mM EGTA, 10 mM sodium fluoride, 2.5 mM sodium orthovanadate, 50 ng/mL calyculin A, 1× protease inhibitor cocktail (Roche), and 1% each of phosphatase inhibitor cocktails 2 and 3 (Sigma). Cell lysate was sonicated (3×10 s) on ice and centrifuged for 15 minutes (13,000 rpm) at 4° C. and the supernatant was collected and syringe-filtered through a […] SFCA membrane. The filtered lysate (approximately 40 mg or protein per experiment) was brought to 1 M NaCl and pre-cleared by flowing over 500 μL of blocked and washed NHS-activated Sepharose 4 Fast Flow beads (GE Healthcare). The flow-through was collected and passed through a column of layered inhibitor-conjugated beads (Bisindoylmaleimide-X (50 μL), SB203580 (50 Lapatinib (100 μL), Dasatinib (100 μL), Purvalanol B (100 μL), VI16832 (100 μL), PP58 (100 4)) to isolate protein kinases from the lysates. Kinase-bound inhibitor beads were washed with 20 mL of high-salt buffer and 10 mL of low-salt buffer, each containing 50 mM HEPES (pH 7.5), 0.5% Triton X-100, 1 mM EDTA, 1 mM EGTA, and 10 mM sodium fluoride, and 1 M NaCl or 150 mM NaCl, respectively. A final wash of 1 mL 0.1% SDS was applied to the columns before elution in 1 mL of a 0.5% SDS solution in high heat. Elutions from all columns were combined and cysteines were alkylated by sequential incubations with DTT (final concentration 5 mM) for 20 minutes at 60° C. and iodoacetamide (final concentration 20 mM) for 30 minutes at room temperature in the dark. The elution was spin-concentrated to 100 μL and detergents were removed by a chloroform/methanol extraction. […]

Setting [1] is: 5 μM AZD6244, SILAC, TiO2 enrichment of MIB elutions.

As to `Cn1cnc2c(F)c(Nc3ccc(Br)cc3Cl)c(C(=O)NOCCO)cc21` [AZD6244], under setting [1], the “peptides of MIB isolated kinases with decreased phosphorylation” value is 52 peptides, the “peptides of MIB isolated kinases with increased phosphorylation” value is 59 peptides and the “phosphopeptides of MIB isolated kinases with unchanged phosphorylation status” value turned out to be 365 phosphopeptides. The “number of kinases with time-dependent MIB binding changes” value (4, 12 and 24 h exposure to AZD6244) is listed as “more than 140 kinases”. In addition, the “MEK1 binding to MIBs” value (12-24 h, 5 μM AZD6244) is “remains largely inhibited”. The “MEK1 and MEK2, measured by loss of MIB binding” value (4 h, 5 μM AZD6244) is listed as “inhibited”. The “MEK2 binding to MIBs, AZD6244/DMSO ratio” value (24 h, 5 μM AZD6244) was determined as 1. In addition, where the note is “SUM159 and/or MDA-MB-231 cells in response to AZD6244”, the “of the 40 highest expressed kinase transcripts of a patient claudin-low tumor, kinases dynamically regulated in binding to MIBs” value is 14 (24%).
